Measured values from paper PMC3402541, “Guanidylation and Tail Effects in Cationic Antimicrobial Lipopeptoids” (PLoS ONE, 2012).
In brackets after ≈: the same amount, converted by molar mass. Where a SMILES comes first, the peptide text is derived from it. [ ]: non-standard residue; d: D form. The star is where a group is joined. Arachidoyl = CCCCCCCCCCCCCCCCCCCC(=O)*; Nlys = NCCCCNCC(=O)O

What was measured:
E. faecalis ATCC 29212 = type: cell-based, Enterococcus faecalis; settings: ATCC 29212, 24 h
Description: (§1) Antimicrobial activity of the purified lipopeptoids was determined without replication against a panel of clinically relevant and standard reference bacterial strains according to CLSI macrobroth standards. Stock solutions at 512 µg/mL were prepared in water, with DMSO as needed, and testing was performed in glass test tubes using Muller-Hinton broth and bacteria adjusted to 5 × 10^5 CFU/mL. Bacteria were incubated with the lipopeptoid of interest for 24 hr at 37°C prior to reading.
(§2) The bacteria Staphylococcus aureus ATCC 29213, methicillin-resistant S. aureus ATCC 33592, Staphylococcus epidermidis ATCC 14990, Enterococcus faecalis ATCC 29212, E. faecium ATCC 27270, Streptococcus pneumoniae ATCC 49619, Escherichia coli ATCC 25922, Pseudomonas aeruginosa ATCC 27853, and Klebsiella pneumoniae ATCC 13883 were acquired from the American Type Culture Collection (ATCC) and used as quality controls. The clinical strains methicillin-resistant S. epidermidis (MRSE) CAN-ICU 61589, E. coli CAN-ICU 61714, E. coli CAN-ICU 63074, P. aeruginosa CAN-ICU 62308, Stenotrophomonas maltophilia CAN-ICU 62584, Acinetobacter baumannii CAN-ICU 63169 were obtained from hospitals across Canada as part of the CAN-ICU studies, while methicillin-susceptible S. epidermidis (MSSE) 81388 was obtained from the 2008 CANWARD study.
(§3) After subculturing the relevant bacteria twice from frozen stock, in vitro activities of the antimicrobials were determined by macrobroth dilution methodology in accordance with the Clinical and Laboratory Standards Institute (CLSI) guidelines (3). The MICs were determined using glass test tubes (2 mL/tube) containing doubling antimicrobial dilutions of cation adjusted Mueller-Hinton broth inoculated to achieve a final concentration of approximately 5 x 10^5 CFU/mL, incubated in ambient air for 24 hr prior to reading. Colony counts were performed periodically to confirm inocula. The ATCC organisms […] ATCC 49619, Staphylococcus aureus ATCC 29213, Enterococcus faecalis ATCC 29212, Escherichia coli ATCC 25922, and Pseudomonas aeruginosa ATCC 27853 were used as quality control and to allow easy comparison to previously tested antimicrobials. Each test in this series was performed without replication. In our experience with cationic amphiphiles the results are accurate to within a single doubling.

MRSE CAN-ICU 61589 = type: cell-based, methicillin-resistant S. epidermidis; settings: CAN-ICU 61589, 24 h
Description: as §1, §2, §3

[1] = test system: A. baumannii CAN-ICU 63169; type: cell-based, Acinetobacter baumannii; settings: CAN-ICU 63169, 24 h
Description: as §1, §2, §3

S.aureus ATCC 29213 = type: cell-based, Staphylococcus aureus; settings: ATCC 29213, 24 h
Description: as §1, §2, §3

[2] = test system: P.aeruginosa CAN-ICU 62308; type: cell-based, Pseudomonas aeruginosa; settings: CAN-ICU 62308, 24 h
Description: as §1, §2, §3

P.aeruginosa ATCC 27853 = type: cell-based, Pseudomonas aeruginosa; settings: ATCC 27853, 24 h
Description: as §1, §2, §3

S.pneumoniae ATCC 49619 = type: cell-based, Streptococcus pneumoniae; settings: ATCC 49619, 24 h
Description: as §1, §2, §3

MRSA ATCC 33592 = type: cell-based, methicillin-resistant S. aureus; settings: ATCC 33592, 24 h
Description: as §1, §2, §3

K.pneumoniae ATCC 13883 = type: cell-based, Klebsiella pneumoniae; settings: ATCC 13883, 24 h
Description: as §1, §2, §3

E. faecium ATCC 27270 = type: cell-based; settings: ATCC 27270, 24 h
Description: as §1, §2, §3

ovine erythrocytes = assay: Haemolytic assay; type: cell-based, sheep; settings: ovine erythrocytes in Tris buffered saline, 30 minutes, absorbance of supernatant at 540 nm
Description: Mammalian cell toxicity was determined by measuring lysis of ovine erythrocytes, a standard model for human cell toxicity. Cells were prewashed with Tris buffered saline and then incubated with a variety of lipopeptoid concentrations for 30 minutes. Following centrifugation, lysis was evaluated by testing the absorbance of the solution at 540 nm, with 0.5% NH4OH used as a positive control.
Toxicity to mammalian cells was determined using a sheep red blood cell (erythrocyte) haemolytic assay (4). Erythrocytes were washed and resuspended in Tris buffered saline prior to use, at a concentration of 1.46 - 4.5 x 10^9 cells/mL (on average 3.08 x 10^9 cells/mL). The cell suspension was diluted with varying concentrations of antimicrobials, from 50 μg/mL to 1 mg/mL and incubated for thirty minutes (final erythrocyte concentration 4.08 x 10^8 cells/mL). The samples were centrifuged following treatment and the absorbance of the supernatant was measured at 540 nm. A solution of 0.5% […] was used as a positive control, with normal buffered solution as the negative control. The toxicity was assessed as a function of percent haemolysis.

[3] = test system: S. maltophilia CAN-ICU 62584; type: cell-based, Stenotrophomonas maltophilia; settings: CAN-ICU 62584, 24 h
Description: as §1, §2, §3

MSSE 81388 CANWARD 2008 = type: cell-based, methicillin-susceptible S. epidermidis; settings: 24 h
Description: as §1, §2, §3

E.coli ATCC 25922 = type: cell-based, Escherichia coli; settings: ATCC 25922, 24 h
Description: as §1, §2, §3

E.coli CAN-ICU 61714 = type: cell-based, Escherichia coli; settings: CAN-ICU 61714, 24 h
Description: as §1, §2, §3

E.coli CAN-ICU 63074 = type: cell-based, Escherichia coli; settings: CAN-ICU 63074, 24 h
Description: as §1, §2, §3

Row | Compound | MIC E. faecalis (E. faecalis ATCC 29212) | MIC E. faecalis in the presence of 4% bovine serum albumin (E. faecalis ATCC 29212) | MIC MRSE (MRSE CAN-ICU 61589) | MIC MRSE in the presence of 4% bovine serum albumin (MRSE CAN-ICU 61589) | MIC A. baumannii [1] | MIC A. baumannii in the presence of 4% bovine serum albumin [1] | MIC S.aureus (S.aureus ATCC 29213) | MIC S.aureus in the presence of 4% bovine serum albumin (S.aureus ATCC 29213) | MIC P.aeruginosa [2] | MIC P.aeruginosa in the presence of 4% bovine serum albumin [2] | MIC P.aeruginosa (P.aeruginosa ATCC 27853) | MIC P.aeruginosa in the presence of 4% bovine serum albumin (P.aeruginosa ATCC 27853) | MIC S.pneumoniae (S.pneumoniae ATCC 49619) | MIC S.pneumoniae in the presence of 4% bovine serum albumin (S.pneumoniae ATCC 49619) | MIC MRSA (MRSA ATCC 33592) | MIC MRSA in the presence of 4% bovine serum albumin (MRSA ATCC 33592) | MIC K.pneumoniae (K.pneumoniae ATCC 13883) | MIC K.pneumoniae in the presence of 4% bovine serum albumin (K.pneumoniae ATCC 13883) | MIC E. faecium (E. faecium ATCC 27270) | MIC E. faecium in the presence of 4% bovine serum albumin (E. faecium ATCC 27270) | further results
1 | CCCCCCCCCCCCCC(=O)N(CCCCNC(=N)N)CC(=O)N(CCCCNC(=N)N)CC(=O)N(CCCCNC(=N)N)CC(N)=O [C14-NhargNhargNharg] | 32 µg/mL (≈ 43.4 µM) | 512 µg/mL | 16 µg/mL (≈ 21.7 µM) | 256 µg/mL | 256 µg/mL (≈ 347 µM) | >512 µg/mL | 16 µg/mL (≈ 21.7 µM) | 256 µg/mL | 128 µg/mL (≈ 173 µM) | 512 µg/mL | 256 µg/mL (≈ 347 µM) | >512 µg/mL | 64 µg/mL (≈ 86.7 µM) | 256 µg/mL | 16 µg/mL (≈ 21.7 µM) | 512 µg/mL | 256 µg/mL (≈ 347 µM) | 512 µg/mL | 16 µg/mL (≈ 21.7 µM) | 256 µg/mL | Percent haemolysis at 100µg/mL of compound (ovine erythrocytes): 20.34%; MIC S. maltophilia [3]: 256 µg/mL (≈ 347 µM); MIC S. maltophilia in the presence of 4% bovine serum albumin [3]: >512 µg/mL; MIC MSSE (MSSE 81388 CANWARD 2008): 8 µg/mL (≈ 10.8 µM); MIC MSSE in the presence of 4% bovine serum albumin (MSSE 81388 CANWARD 2008): 512 µg/mL; MIC E.coli (E.coli ATCC 25922): 64 µg/mL (≈ 86.7 µM); MIC E.coli in the presence of 4% bovine serum albumin (E.coli ATCC 25922): 512 µg/mL; MIC E.coli (E.coli CAN-ICU 61714): 64 µg/mL (≈ 86.7 µM); MIC E.coli in the presence of 4% bovine serum albumin (E.coli CAN-ICU 61714): 512 µg/mL; MIC E.coli (E.coli CAN-ICU 63074): 64 µg/mL (≈ 86.7 µM); MIC E.coli in the presence of 4% bovine serum albumin (E.coli CAN-ICU 63074): 512 µg/mL
2 | CCCCCCCCCCCCCC(=O)N(CCCCNC(=N)N)CC(=O)NCC(=O)N(CCCCNC(=N)N)CC(N)=O [C14-NhargGNharg] | 32 µg/mL (≈ 51.2 µM) | 512 µg/mL | 16 µg/mL (≈ 25.6 µM) | 512 µg/mL | 512 µg/mL (≈ 819 µM) | >512 µg/mL | 16 µg/mL (≈ 25.6 µM) | 512 µg/mL | 128 µg/mL (≈ 205 µM) | >512 µg/mL | 64 µg/mL (≈ 102 µM) | >512 µg/mL | 128 µg/mL (≈ 205 µM) | 512 µg/mL | 16 µg/mL (≈ 25.6 µM) | 512 µg/mL | 256 µg/mL (≈ 410 µM) | >512 µg/mL | 32 µg/mL (≈ 51.2 µM) | 512 µg/mL | Percent haemolysis at 100µg/mL of compound (ovine erythrocytes): 55.44%; MIC S. maltophilia [3]: 256 µg/mL (≈ 410 µM); MIC S. maltophilia in the presence of 4% bovine serum albumin [3]: >512 µg/mL; MIC MSSE (MSSE 81388 CANWARD 2008): 8 µg/mL (≈ 12.8 µM); MIC MSSE in the presence of 4% bovine serum albumin (MSSE 81388 CANWARD 2008): 512 µg/mL; MIC E.coli (E.coli ATCC 25922): 32 µg/mL (≈ 51.2 µM); MIC E.coli in the presence of 4% bovine serum albumin (E.coli ATCC 25922): 512 µg/mL; MIC E.coli (E.coli CAN-ICU 61714): 64 µg/mL (≈ 102 µM); MIC E.coli in the presence of 4% bovine serum albumin (E.coli CAN-ICU 61714): >512 µg/mL; MIC E.coli (E.coli CAN-ICU 63074): 64 µg/mL (≈ 102 µM); MIC E.coli in the presence of 4% bovine serum albumin (E.coli CAN-ICU 63074): >512 µg/mL
3 | CCCCCCCCCCCCCCCCCCCC(=O)N(CCCCN)CC(=O)NCC(=O)N(CCCCN)CC(N)=O [C20-NlysGNlys] (Arachidoyl-[Nlys]-Gly-[Nlys]-NH2) | 16 µg/mL (≈ 25.6 µM) | 512 µg/mL | 8 µg/mL (≈ 12.8 µM) | 512 µg/mL | 128 µg/mL (≈ 205 µM) | >512 µg/mL | 8 µg/mL (≈ 12.8 µM) | 512 µg/mL | 256 µg/mL (≈ 410 µM) | >512 µg/mL | 256 µg/mL (≈ 410 µM) | >512 µg/mL | 128 µg/mL (≈ 205 µM) | 512 µg/mL | 16 µg/mL (≈ 25.6 µM) | 512 µg/mL | 128 µg/mL (≈ 205 µM) | >512 µg/mL | 16 µg/mL (≈ 25.6 µM) | 512 µg/mL | Percent haemolysis at 100µg/mL of compound (ovine erythrocytes): 33.51%; MIC S. maltophilia [3]: 128 µg/mL (≈ 205 µM); MIC S. maltophilia in the presence of 4% bovine serum albumin [3]: >512 µg/mL; MIC MSSE (MSSE 81388 CANWARD 2008): 8 µg/mL (≈ 12.8 µM); MIC MSSE in the presence of 4% bovine serum albumin (MSSE 81388 CANWARD 2008): 256 µg/mL; MIC E.coli (E.coli ATCC 25922): 256 µg/mL (≈ 410 µM); MIC E.coli in the presence of 4% bovine serum albumin (E.coli ATCC 25922): >512 µg/mL; MIC E.coli (E.coli CAN-ICU 61714): 256 µg/mL (≈ 410 µM); MIC E.coli in the presence of 4% bovine serum albumin (E.coli CAN-ICU 61714): >512 µg/mL; MIC E.coli (E.coli CAN-ICU 63074): 128 µg/mL (≈ 205 µM); MIC E.coli in the presence of 4% bovine serum albumin (E.coli CAN-ICU 63074): >512 µg/mL
